Test results reported in patent US12570648B2, “6,7-dihydro-5H-pyrido[2,3-c]pyridazine derivatives and related compounds as Bcl-xL protein inhibitors and pro-apoptotic agents for treating cancer” (LES LABORATOIRES SERVIER, priority 2019, dated 2026).

Columns and labels:
H146 cells = assay: H146 cell viability using MTT assay; format: cell-based; conditions: Homo sapiens, NCI-H146, 48 h exposure
In short: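 Cells were cultured in RPMI 1640 with 10% heat-inactivated FBS, penicillin/streptomycin and 2 mM L-glutamine, then exposed 48 h to 9 concentrations (3.16-fold series, triplicates). MTT was added for 4 h and formazan solubilised overnight in SDS/HCl. OD was read at 540 nm and IC50 fitted with four-parameter curves.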

MOLT-4 xenografts = assay: Tumor regression study in MOLT-4 xenografts; format: in vivo, female NOD SCID mice; conditions: 5 mg/kg IV
Description: The in vivo therapeutic and pharmacodynamic effects of Bcl-xL-targeting small molecules were determined in MOLT-4 T-cell Acute Lymphoblastic Leukemia (T-ALL) model upon intravenous (IV) or oral (PO) administration.
MOLT-4 cells (ATCC No. CRL-1582) were cultured in RPMI supplemented with 10% FBS. Cells were re-suspended in 50% matrigel (BD Biosciences) and 0.1 mL containing 5×10^6 cells was subcutaneously inoculated into the right flank of female NOD SCID mice (Charles River). For efficacy studies, when tumors reached the appropriate volume, mice were randomized (7 animals per group) using Easy stat software. […] Mice body weight was monitored three times a week and tumor size was measured using electronic calipers. Tumor volume was estimated by measuring the minimum and maximum tumor diameters using the formula: (minimum diameter)^2(maximum diameter)/2. The last day with at least half of control animals still present in the study (day 31), tumor growth inhibition was calculated using the formula: […]
Response was evaluated as follows: CR (Complete Response) if tumor size was <25 mm^3 for at least three consecutive measurements, PR (Partial Response) if tumor size was comprised between 25 mm^3 and half of the starting size for at least three consecutive measurements. Mice were sacrificed at the first measurement for which tumor volume exceeded 2000 mm^3 or at the first signs of animal health deterioration.

[1] = target: GST(1-218)-(FACTOR_XA)-hsBCLXL(2-209) (Homo sapiens (Human), UniProt Q07817); assay: Fluorescence polarisation assay; format: binding
Description: Fluorescence polarization measures the rotation of a fluorescing species in solution, the larger the molecule the more polarized the fluorescence emission.
(GST UniProtKB® primary accession number P08515 and BCLXL UniProtKB® primary accession number Q07817-1), • resulting in an increase in anisotropy. If a compound is added which competitively binds to the same site as the probe, thereby releasing it, anisotropy decreases due to the increased amount of free probe.
An 11-point serial dilution of each compound was prepared in DMSO, the final buffer conditions were 10 mM 4-(2-hydroxyethyl)-1-piperazineethanesulfonic acid [HEPES], 150 mM NaCl, 0.05% Tween 20, pH 7.4 and 5% DMSO. The final protein concentration in the assay was 20 nM with the fluorescent probe present at 10 nM. […] 1; 37 (WebServer issue): W441-W445.

circulating platelets = assay: Pharmacodynamics: circulating platelets in MOLT-4-grafted mice; format: in vivo, female NOD SCID mice; conditions: after treatment discontinuation (data not shown)
Description: For pharmacodynamics studies, when tumors reached the appropriate volume, mice were randomized (3 animals per group) using Easy stat software. […] Tumor samples were collected 6 h after dosing and lysed (10 mM HEPES pH 7.4, 142.5 mM KCl, 5 mM MgCl2, 1 mM EDTA, 1% NP40, protease and phosphatase inhibitors cocktails—Calbiochem). Cleared lysates were prepared for immunodetection of cleaved PARP and Caspase 3 by using the MSD apoptosis panel whole cell lysate kit (MSD) in 96-well plates according to manufacturer's instructions, and were analyzed on the QuickPlex SQ 120. Whole blood samples were analyzed on the Hematology Analyzer Coulter Ac⋅T diff (Beckman Coulter).

[2] = target: His-His-(EK)-hsBCLXL(2-197)[N197C] (Homo sapiens (Human), UniProt Q07817, N197C); assay: Fluorescence quenching assay; format: binding; conditions: 1 nM Cy5-labelled protein, 400 nM PUMA peptide, 2 hours at 23° C.; KI determined from IC50
In short: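 Cy5-labelled BCL-xL (1 nM) with TQ5WS quencher-labelled PUMA peptide (400 nM); displacement by compound (11-point dilution) raises fluorescence. Buffer 10 mM HEPES, 150 mM NaCl, 0.05% Tween 20, pH 7.4, 5% DMSO; 2 h at 23° C, Ex 620/Em 680 nm. Ki derived from IC50.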

Sequence of His-His-(EK)-hsBCLXL(2-197)[N197C] (Q07817 2-197 N197C): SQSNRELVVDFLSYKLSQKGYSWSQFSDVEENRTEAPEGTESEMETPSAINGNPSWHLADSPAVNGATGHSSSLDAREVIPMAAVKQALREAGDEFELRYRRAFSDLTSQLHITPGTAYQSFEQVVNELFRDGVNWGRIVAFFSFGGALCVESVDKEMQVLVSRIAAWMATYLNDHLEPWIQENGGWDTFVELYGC
Sequence of GST(1-218)-(FACTOR_XA)-hsBCLXL(2-209) (Q07817 other isoform, or with tags, fused parts or gaps): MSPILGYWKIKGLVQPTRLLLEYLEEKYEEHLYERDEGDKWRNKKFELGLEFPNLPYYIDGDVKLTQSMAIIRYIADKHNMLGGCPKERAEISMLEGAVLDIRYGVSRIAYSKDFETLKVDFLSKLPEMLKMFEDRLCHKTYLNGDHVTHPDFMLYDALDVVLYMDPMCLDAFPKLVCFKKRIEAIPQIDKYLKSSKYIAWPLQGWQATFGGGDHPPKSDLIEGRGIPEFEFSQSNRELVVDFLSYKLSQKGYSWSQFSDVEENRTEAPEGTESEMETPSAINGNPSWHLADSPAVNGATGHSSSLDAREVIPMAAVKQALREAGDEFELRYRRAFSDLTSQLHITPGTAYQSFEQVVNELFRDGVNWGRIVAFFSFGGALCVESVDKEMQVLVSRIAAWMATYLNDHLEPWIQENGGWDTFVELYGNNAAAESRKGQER

Cc1c(Nc2nc3ccccc3s2)nnc2c1CCCN2c1ccc(-c2cnn(CC34CC5CC(CC(C5)C3)C4)c2C)c(C(=O)O)n1 [Example 24]
IC50 (H146 cells): 32.7 nM
% CR (MOLT-4 xenografts; Q3D6): 0%
% PR (MOLT-4 xenografts; Q3D6): 71.4%
% TGI (d31) (MOLT-4 xenografts; Q3D6, day 31): 78.7%
Ki [1]: < 1 nM
platelets loss recovery (circulating platelets): platelets loss was recovered after treatment discontinuation
Ki [2]: 0.008 nM
